Test results from patent EP2735339B1, “Extract and isolated compounds from Drechslera rostrata and/or Eurotium tonophilum for use as anti-leishmania-major agents” (King Saud University, priority 2012, dated 2014).
Values after ≈ are worked out from the molar mass of the structure shown. Where two headings read alike, the source gives them in different places.

Key:
[1] = system: Leishmania amazonensis; conditions: growth of Leishmania amazonensis; cited from earlier work
[2] = system: Promastigotes of the reference strain of Leishmania major; assay: In vitro anti-leishmanial activity, MTT assay on promastigotes; format: cell-based; conditions: 72 hours, 26 °C
Method: Parasite: Promastigotes of the reference strain of Leishmania major were grown in RPMI-1640 medium supplemented with 10.000 Unites penicillin 10 µg of treptomycin/ml and 10 % heat inactivated fetal calf serum in 50 ml Nunc flasks at 26 °C in a dark environment. All experiments were performed with parasite cultures in the stationary phase by allowing them to grow for seven days.
Promastigotes were resuspended in fresh medium to achieve 10^6 parasites/ml and were seeded in 96-well Nunc culture plate, each well containing 100 µl medium with different concentrations of total extracts for both fungi (Drechslera rostrata and Eurotium tonophilum) in addition to the four isolated compounds. Control wells received only culture medium. The plates were incubated in 26 °C for 72 hours and Promastigotes viability was evaluated by the quantitative colorimetric MTT assay. The alteration of MTT to the formazan product by the mitochondrial electron transport chain is an indicator of cell viability, and a decrease in the amount of MTT converted indicated toxicity to the cell.
Briefly, the MTT labeling reagent was added to each well to the final concentration of 0.25 mg/ml. After incubation for 3 hours at 26 °C, DMSO was added to dissolve the formazan crystals and obtain a homogeneous blue solution suitable for measurement of the absorbance with an enzyme-linked immunosorbent assay plate reader (wave length 492).
Percent growth inhibition of the parasite was calculated by the following formula: % of inhibition = ((OD control-OD drugs))/(OD control) X 100 [formula]
The concentration inhibiting 50 % of the parasite growth (IC50) was calculated after evaluating percent growth inhibition at different concentrations. Reference compound was Pentostam.
Stock solutions of the total extracts , compounds, plus control drugs, were prepared at a concentration of 20 mg mL-1 in DMSO (Sigma, UK), and diluted to appropriate concentrations prior to assays. IC50 values were calculated with MSXLFIT (IDBS, UK) Djalma et al., J. Braz. Chem. Soc. Vol. 20, No. 4, 644-651, (2009).

[3] = system: Leishmania major; assay: In vivo anti-leishmanial activity, lesion size in infected mice under oral treatment; conditions: for Mean + SD lesion size(mm), day 1 of treatment: day 1 of oral treatment; for Mean + SD lesion size(mm), day 1 of treatment / Mean + SD lesion size(mm), day 4 of treatment / Mean + SD lesion size(mm), day 8 of treatment / Mean + SD lesion size(mm), day 11 of treatment / Mean + SD lesion size(mm), day 15 of treatment / Mean + SD lesion size(mm), day 18 of treatment / Mean + SD lesion size(mm), day 25 of treatment / Mean + SD lesion size(mm), day 28 of treatment: mice infected with L.major, n = 6; for Mean + SD lesion size(mm), day 4 of treatment: day 4 of oral treatment; for Mean + SD lesion size(mm), day 8 of treatment: day 8 of oral treatment; for Mean + SD lesion size(mm), day 11 of treatment: day 11 of oral treatment; for Mean + SD lesion size(mm), day 15 of treatment: day 15 of oral treatment; for Mean + SD lesion size(mm), day 18 of treatment: day 18 of oral treatment; for Mean + SD lesion size(mm), day 25 of treatment: day 25 of oral treatment; for Mean + SD lesion size(mm), day 28 of treatment: day 28 of oral treatment
Method: Balb/c mice ([…]) males were provided by Girls collage of science, Zoology department, King Saud University, Riyadh, KSA). The animals were housed in standard plastic cages and were maintained on standard feed and water ad libitum.
Each mouse was inoculated in the lumbar area with 10^7 of stationary phase Leishmania major suspended in 0.1 ml RPMI medium. The mice were kept at the animal house for 3-4 weeks till the lesion was observed. Extracts were administrated orally (400 mg/kg mouse body weight) daily until complete recovery from the lesion. Liver functions tests and histopathological examination of organs (liver, spleen and kidney) were done at the end of study.

[4] = system: leishmania; conditions: antileishmanial activity; cited from earlier work
[5] = system: Leishmania spp; conditions: growth of Leishmania spp; cited from earlier work
[6] = system: leishmania; conditions: against leishmania; cited from earlier work

Compound | Mean + SD lesion size(mm), day 1 of treatment [3] [mm] | Mean + SD lesion size(mm), day 4 of treatment [3] [mm] | Mean + SD lesion size(mm), day 8 of treatment [3] [mm] | Mean + SD lesion size(mm), day 11 of treatment [3] [mm] | Mean + SD lesion size(mm), day 15 of treatment [3] | Mean + SD lesion size(mm), day 18 of treatment [3] | Mean + SD lesion size(mm), day 25 of treatment [3] | Mean + SD lesion size(mm), day 28 of treatment [3] | also measured
C=C1C(=O)O[C@H]2C[C@@](C)(O)C3=CC[C@](C)(O)[C@@H]3C[C@H]12 [guaianolide] |  |  |  |  |  |  |  |  | IC50 [1]: 2.6 µg/mL (≈ 9.84 µM)
1,8-Dihydroxy-3-methoxy-6-methyl-anthraquinone [Compound H3] | 9.23±1.4 | 7.28±2.1 | 5.15±1.4 | 3.41±1.8 | 2.31±2.6 mm | zero | zero | zero | IC50 [2]: 19.38 µg/mL
Diisooctylphthalate [Compound H2] | 9.13±1.2 | 6.18±1.2 | 4.15±1.2 | 1.11±1.2 | 0.21±1.5 mm | zero | zero | zero | IC50 [2]: 3.2 µg/mL
O.O.O.O.O.O.O.O.O.O=C([O-])[C@@H]1[O][Sb](=[O])([O][Sb]2(=[O])[O][C@H]([C@H](O)CO)[C@H](O)[C@H](C(=O)[O-])[O]2)[O][C@H]([C@H](O)CO)[C@@H]1O.[Na+].[Na+].[Na+] (stereo partly shown) [Pentostam, reference compound] | 9.56±1.3 | 8.98±2.0 | 7.45±1.8 | 6.9±1.3 | 5.39±3.1 mm | 4.32±2.1 mm | 3.30±2.1 mm | 2.61±2.5 mm | complete heeling after 28 days ([3]; standard drug, 28 days): did not show complete heeling
C/C=C(/C)C(=O)OC[C@H]1C2=C(C[C@H]3[C@H]4C5=C(C(=O)C(C)=C(OC)C5=O)[C@H](O)[C@@H](CN13)N4C)C(=O)C(C)=C(OC)C2=O [Renieramycin A] |  |  |  |  |  |  |  |  | IC50 [4]: 0.2 µg·mL
C=C1CCC[C@H]2[C@]1(CC[C@@]1(C)C3=CCCC(C)(C)[C@@H]3CC[C@@H]1C)CC[C@H](C)[C@]2(C)Cc1cc(OS(=O)(=O)O)ccc1OS(=O)(=O)O [isoakaterpin] |  |  |  |  |  |  |  |  | IC50 [5]: 1050 nM
OCC(O)C(O)C(O)C(O)CO (stereo not shown) [Compound H1, Hexane-1,2,3,4,5,6-hexol] | 9.95±1.5 | 7.19±1.2 | 4.85±1.2 | 2.78±1.7 | 1.21+1.1 mm | zero | zero | zero | IC50 ([2]; read-out: IC50): 6.5 µg/mL (≈ 35.7 µM)
C=CCCC/C=C\C/C=C\CCCCCCCc1cc(O)cc(O)c1 [5-heptadeca-8'Z,11'Z,16-trienylresorcinol] |  |  |  |  |  |  |  |  | IC50 [6]: 3.6 µg/mL (≈ 10.5 µM)
